We go through 31 compounds from patent publication US20050197350A1, “Novel quinoline, tetrahydroquinazoline, and pyrimidine derivatives and methods of treatment related to the use thereof” (TAISHO PHARMACEUTICAL CO., LTD., priority 2003, published 2005).

Structures are written as SMILES.

This assay has as its system MCH receptors. As to the kind of experiment: MCH receptor activity class (method not given). The note with it: class by percent of control at 10^−7 M or IC50.

With `Cc1cc(C(=O)N[C@H]2CC[C@@H](Nc3ncc(C)c(N(C)C)n3)CC2)ccc1F` [compound 2923, N-(cis-4-{[4-(dimethylamino)-5-methylpyrimidin-2-yl]amino}cyclohexyl)-4-fluoro-3-methylbenzamide], the class is given as 1 (Class 1: The value of percent of control at 10^−7 M was less than 40% or the value of IC50 was less than 50 nM.).

For the compound `Cc1ccc(C(=O)N[C@H]2CC[C@@H](Nc3ncc(C)c(N(C)C)n3)CC2)cc1F` [compound 2924, N-(cis-4-{[4-(dimethylamino)-5-methylpyrimidin-2-yl]amino}cyclohexyl)-3-fluoro-4-methylbenzamide], the class is recorded as 1 (Class 1: The value of percent of control at 10^−7 M was less than 40% or the value of IC50 was less than 50 nM.).

Consider `CCc1cccc(C(=O)N[C@H]2CC[C@@H](Nc3ncc(C)c(N(C)C)n3)CC2)c1` [compound 2925, N-(cis-4-{[4-(dimethylamino)-5-methylpyrimidin-2-yl]amino}cyclohexyl)-3-ethylbenzamide], for which the class is 1 (Class 1: The value of percent of control at 10^−7 M was less than 40% or the value of IC50 was less than 50 nM.).

On to `Cc1cnc(N[C@H]2CC[C@@H](NC(=O)c3ccc4c(c3)OC(F)(F)O4)CC2)nc1N(C)C` [compound 2926, N-(cis-4-{[4-(dimethylamino)-5-methylpyrimidin-2-yl]amino}cyclohexyl)-2,2-difluoro-1,3-benzodioxole-5-carboxamide], for which the class is on record as 1 (Class 1: The value of percent of control at 10^−7 M was less than 40% or the value of IC50 was less than 50 nM.).

On to `CCOc1cccc(C(=O)N[C@H]2CC[C@@H](Nc3ncc(C)c(N(C)C)n3)CC2)c1` [compound 2927, N-(cis-4-{[4-(dimethylamino)-5-methylpyrimidin-2-yl]amino}cyclohexyl)-3-ethoxybenzamide], for which the class was 2 (Class 2: The value of percent of control at 10^−7 M was from 40% to 60% or the value of IC′50 was from 50 nM to 200 nM.).

On to `Cc1cnc(N[C@H]2CC[C@@H](NC(=O)c3cccc(OC(C)C)c3)CC2)nc1N(C)C` [compound 2928, N-(cis-4-{[4-(dimethylamino)-5-methylpyrimidin-2-yl]amino}cyclohexyl)-3-isopropoxybenzamide], for which the class was 2 (Class 2: The value of percent of control at 10^−7 M was from 40% to 60% or the value of IC′50 was from 50 nM to 200 nM.).

Regarding `CCOc1cc(OCC)cc(C(=O)N[C@H]2CC[C@@H](Nc3ncc(C)c(N(C)C)n3)CC2)c1` [compound 2929, N-(cis-4-{[4-(dimethylamino)-5-methylpyrimidin-2-yl]amino}cyclohexyl)-3,5-diethoxybenzamide], the class was 1 (Class 1: The value of percent of control at 10^−7 M was less than 40% or the value of IC50 was less than 50 nM.).

Consider `Cc1cnc(N[C@H]2CC[C@@H](NC(=O)c3cc(F)cc(C(F)(F)F)c3)CC2)nc1N(C)C` [compound 2930, N-(cis-4-{[4-(dimethylamino)-5-methylpyrimidin-2-yl]amino}cyclohexyl)-3-fluoro-5-(trifluoromethyl)benzamide], for which the class was 1 (Class 1: The value of percent of control at 10^−7 M was less than 40% or the value of IC50 was less than 50 nM.).

On to `Cc1cnc(N[C@H]2CC[C@@H](NC(=O)c3ccc(C(F)(F)F)c(F)c3)CC2)nc1N(C)C` [compound 2931], for which the class is 3 (Class 3 The value of percent of control at 10^−7 M was more than 60% or the value of IC50 was more than 200 nM.).

As for `Cc1cnc(N[C@H]2CC[C@@H](NC(=O)c3ccc(F)c(Cl)c3)CC2)nc1N(C)C` [compound 2932], the class is recorded as 3 (Class 3 The value of percent of control at 10^−7 M was more than 60% or the value of IC50 was more than 200 nM.).

In the case of `Cc1cnc(N[C@H]2CC[C@@H](NC(=O)c3cc(Br)cc(Br)c3)CC2)nc1N(C)C` [compound 2933], the class is recorded as 1 (Class 1: The value of percent of control at 10^−7 M was less than 40% or the value of IC50 was less than 50 nM.).

As for `Cc1cc(C)cc(C(=O)N[C@H]2CC[C@@H](Nc3ncc(C)c(N(C)C)n3)CC2)c1` [compound 2934], the class is 1 (Class 1: The value of percent of control at 10^−7 M was less than 40% or the value of IC50 was less than 50 nM.).

Take `Cc1cc(C(=O)N[C@H]2CC[C@@H](Nc3ncc(C)c(N(C)C)n3)CC2)ccc1Cl` [compound 2935]: the class is 1 (Class 1: The value of percent of control at 10^−7 M was less than 40% or the value of IC50 was less than 50 nM.).

Consider `COc1ccc(C(=O)N[C@H]2CC[C@@H](Nc3ncc(C)c(N(C)C)n3)CC2)cc1C(F)(F)F` [compound 2936, N-(cis-4-{[4-(dimethylamino)-5-methylpyrimidin-2-yl]amino}cyclohexyl)-4-methoxy-3-(trifluoromethyl)benzamide], for which the class is on record as 1 (Class 1: The value of percent of control at 10^−7 M was less than 40% or the value of IC50 was less than 50 nM.).

Turning to `Cc1cccc(C(=O)N[C@H]2CC[C@@H](Nc3ncc(C)c(N(C)C)n3)CC2)c1` [compound 2937, N-(cis-4-{[4-(dimethylamino)-5-methylpyrimidin-2-yl]amino}cyclohexyl)-3-methylbenzamide], the class is listed as 1 (Class 1: The value of percent of control at 10^−7 M was less than 40% or the value of IC50 was less than 50 nM.).

For `COc1cccc(C(=O)N[C@H]2CC[C@@H](Nc3ncc(C)c(N(C)C)n3)CC2)c1` [compound 2938, N-(cis-4-{[4-(dimethylamino)-5-methylpyrimidin-2-yl]amino}cyclohexyl)-3-methoxybenzamide], the class was 1 (Class 1: The value of percent of control at 10^−7 M was less than 40% or the value of IC50 was less than 50 nM.).

On to `Cc1ccc(C(=O)N[C@H]2CC[C@@H](Nc3ncc(C)c(N(C)C)n3)CC2)cc1` [compound 2939, N-(cis-4-{[4-(dimethylamino)-5-methylpyrimidin-2-yl]amino}cyclohexyl)-4-methylbenzamide], for which the class is 1 (Class 1: The value of percent of control at 10^−7 M was less than 40% or the value of IC50 was less than 50 nM.).

Take `Cc1cnc(N[C@H]2CC[C@@H](NC(=O)c3cccc(Cl)c3)CC2)nc1N(C)C` [compound 2940, 3-chloro-N-(cis-4-{[4-(dimethylamino)-5-methylpyrimidin-2-yl]amino}cyclohexyl)benzamide]: the class is listed as 1 (Class 1: The value of percent of control at 10^−7 M was less than 40% or the value of IC50 was less than 50 nM.).

For `Cc1cnc(N[C@H]2CC[C@@H](NC(=O)CN(C)c3cccc(Cl)c3)CC2)nc1N(C)C` [compound 2941], the class is given as 1 (Class 1: The value of percent of control at 10^−7 M was less than 40% or the value of IC50 was less than 50 nM.).

For `Cc1cccc(N(C)CC(=O)N[C@H]2CC[C@@H](Nc3ncc(C)c(N(C)C)n3)CC2)c1` [compound 2942], the class was 1 (Class 1: The value of percent of control at 10^−7 M was less than 40% or the value of IC50 was less than 50 nM.).

Take `Cc1cnc(N[C@H]2CC[C@@H](NC(=O)CN(C)c3cccc(F)c3)CC2)nc1N(C)C` [compound 2943]: the class is listed as 1 (Class 1: The value of percent of control at 10^−7 M was less than 40% or the value of IC50 was less than 50 nM.).

Consider `Cc1cnc(N[C@H]2CC[C@@H](NC(=O)CN(C)c3ccc(F)cc3)CC2)nc1N(C)C` [compound 2944], for which the class is 1 (Class 1: The value of percent of control at 10^−7 M was less than 40% or the value of IC50 was less than 50 nM.).

`Cc1cnc(N[C@H]2CC[C@@H](NC(=O)CN(C)c3ccc(Cl)cc3)CC2)nc1N(C)C` [compound 2945]: the class is 1 (Class 1: The value of percent of control at 10^−7 M was less than 40% or the value of IC50 was less than 50 nM.).

As for `Cc1cnc(N[C@H]2CC[C@@H](NC(=O)CN(C)c3ccc(F)c(F)c3)CC2)nc1N(C)C` [compound 2946], the class was 1 (Class 1: The value of percent of control at 10^−7 M was less than 40% or the value of IC50 was less than 50 nM.).

For `COc1cccc(N(C)CC(=O)N[C@H]2CC[C@@H](Nc3ncc(C)c(N(C)C)n3)CC2)c1` [compound 2947], the class was 1 (Class 1: The value of percent of control at 10^−7 M was less than 40% or the value of IC50 was less than 50 nM.).

On to `COc1ccc(N(C)CC(=O)N[C@H]2CC[C@@H](Nc3ncc(C)c(N(C)C)n3)CC2)cc1` [compound 2948], for which the class was 2 (Class 2: The value of percent of control at 10^−7 M was from 40% to 60% or the value of IC′50 was from 50 nM to 200 nM.).

As to `Cc1cc(N(C)C)nc(N[C@H]2CC[C@@H](NC(=O)C(C)(C)c3ccc(Cl)cc3)CC2)n1` [compound 2949, 2-(4-chlorophenyl)-N-(cis-4-{[4-(dimethylamino)-6-methylpyrimidin-2-yl]amino}cyclohexyl)-2-methylpropanamide], the class was 1 (Class 1: The value of percent of control at 10^−7 M was less than 40% or the value of IC50 was less than 50 nM.).

With `Cc1cc(N(C)C)nc(N[C@H]2CC[C@@H](NC(=O)Cc3cc(C(F)(F)F)cc(C(F)(F)F)c3)CC2)n1` [compound 2950, 2-[3,5-bis(trifluoromethyl)phenyl]-N-(cis-4-{[4-(dimethylamino)-6-methylpyrimidin-2-yl]amino}cyclohexyl)acetamide], the class is 2 (Class 2: The value of percent of control at 10^−7 M was from 40% to 60% or the value of IC′50 was from 50 nM to 200 nM.).

`Cc1cc(N(C)C)nc(N[C@H]2CC[C@@H](NC(=O)c3ccccc3)CC2)n1` [compound 2951, N-(cis-4-{[4-(dimethylamino)-6-methylpyrimidin-2-yl]amino}cyclohexyl)benzamide]: the class is on record as 3 (Class 3 The value of percent of control at 10^−7 M was more than 60% or the value of IC50 was more than 200 nM.).

`CCCCc1ccc(C(=O)N[C@H]2CC[C@@H](Nc3nc(C)cc(N(C)C)n3)CC2)cc1` [compound 2952]: the class is reported as 3 (Class 3 The value of percent of control at 10^−7 M was more than 60% or the value of IC50 was more than 200 nM.).

For the compound `Cc1cc(N(C)C)nc(N[C@H]2CC[C@@H](NC(=O)c3cccc(F)c3)CC2)n1` [compound 2953, N-(cis-4-{[4-(dimethylamino)-6-methylpyrimidin-2-yl]amino}cyclohexyl)-3-fluorobenzamide], the class is recorded as 2 (Class 2: The value of percent of control at 10^−7 M was from 40% to 60% or the value of IC′50 was from 50 nM to 200 nM.).
